System: MV-4-11 cells
Assay: Gene expression microarray analysis (Affymetrix PrimeView) and GSEA
Format: cell-based, human
Set-up: RFU PODN (11730768_x_at) / Fold change /veh PODN (11730768_x_at) / RFU LINC00158 (11744669_a_at) / Fold change /veh LINC00158 (11744669_a_at) / RFU DUSP10 (11751237_a_at) / Fold change /veh DUSP10 (11751237_a_at) / RFU ID3 (11757404_x_at) / Fold change /veh ID3 (11757404_x_at) / RFU PLEKHG5 (11737974_s_at) / Fold change /veh PLEKHG5 (11737974_s_at) / RFU LRRC4B (11730491_at) / Fold change /veh LRRC4B (11730491_at) / RFU GIMAP4 (11747438_a_at) / Fold change /veh GIMAP4 (11747438_a_at) / RFU KRT8 (11758183_x_at) / Fold change /veh KRT8 (11758183_x_at) / RFU CNN1 (11734310_a_at) / Fold change /veh CNN1 (11734310_a_at) / RFU VPS37D (11726825_at) / Fold change /veh VPS37D (11726825_at) / RFU C10orf10 (11716522_x_at) / Fold change /veh C10orf10 (11716522_x_at) / RFU KIR2DL2 /// KIR2DL4 /// KIR2DL5A /// KIR2DL5B /// KIR2DS1 /// KIR2DS2 /// KIR2DS3 /// KIR2DS4 /// KIR3DL3 /// KIR3DL3 /// KIR3DS1 (11738374_at) / Fold change /veh KIR2DL2 /// KIR2DL4 /// KIR2DL5A /// KIR2DL5B /// KIR2DS1 /// KIR2DS2 /// KIR2DS3 /// KIR2DS4 /// KIR3DL3 /// KIR3DL3 /// KIR3DS1 (11738374_at) / RFU C1QL1 (11718748_at) / Fold change /veh C1QL1 (11718748_at) / RFU TMPRSS4 (11747572_a_at) / Fold change /veh TMPRSS4 (11747572_a_at) / RFU HAMP (11756126_x_at) / Fold change /veh HAMP (11756126_x_at) / RFU RNFT2 (11725882_a_at) / Fold change /veh RNFT2 (11725882_a_at) / RFU NR4A2 (11747474_a_at) / Fold change /veh NR4A2 (11747474_a_at) / RFU ABCC12 (11746883_a_at) / Fold change /veh ABCC12 (11746883_a_at) / RFU TMEM136 (11760407_x_at) / Fold change /veh TMEM136 (11760407_x_at) / RFU CLDN22 /// WWC2 (11732394_at) / Fold change /veh CLDN22 /// WWC2 (11732394_at) / RFU HLA-DPB1 (11760878_x_at) / Fold change /veh HLA-DPB1 (11760878_x_at) / RFU SPINT1 (11716480_a_at) / Fold change /veh SPINT1 (11716480_a_at) / RFU GAP43 (11754022_s_at) / Fold change /veh GAP43 (11754022_s_at) / RFU A4GNT (11735810_at) / Fold change /veh A4GNT (11735810_at) / RFU PRB3 (11715151_x_at) / Fold change /veh PRB3 (11715151_x_at) / RFU TUBB4B (11761932_at) / Fold change /veh TUBB4B (11761932_at) / RFU CAPN14 (11732068_a_at) / Fold change /veh CAPN14 (11732068_a_at) / RFU TMCC2 (11721928_a_at) / Fold change /veh TMCC2 (11721928_a_at) / RFU IRGQ (11745062_a_at) / Fold change /veh IRGQ (11745062_a_at) / RFU FAM174B (11720279_a_at) / Fold change /veh FAM174B (11720279_a_at) / RFU TMPRSS4 (11748680_a_at) / Fold change /veh TMPRSS4 (11748680_a_at) / RFU FAM212B (11763350_a_at) / Fold change /veh FAM212B (11763350_a_at) / RFU PLEKHG5 (11743358_a_at) / Fold change /veh PLEKHG5 (11743358_a_at) / RFU ZSCAN30 (11745921_a_at) / Fold change /veh ZSCAN30 (11745921_a_at) / RFU CMKLR1 (11741424_a_at) / Fold change /veh CMKLR1 (11741424_a_at) / RFU LOC101060620 /// MAPK8IP1 (11723275_at) / Fold change /veh LOC101060620 /// MAPK8IP1 (11723275_at) / RFU SPTSSB (11747773_x_at) / Fold change /veh SPTSSB (11747773_x_at) / RFU PRSS12 (11739890_at) / Fold change /veh PRSS12 (11739890_at) / RFU BIN1 (11741810_x_at) / Fold change /veh BIN1 (11741810_x_at) / RFU WNT11 (11732464_a_at) / Fold change /veh WNT11 (11732464_a_at) / RFU C10orf10 (11716521_a_at) / Fold change /veh C10orf10 (11716521_a_at) / RFU C5orf56 (11738089_at) / Fold change /veh C5orf56 (11738089_at) / RFU CYB561 (11721691_x_at) / Fold change /veh CYB561 (11721691_x_at) / RFU ANKRD19P (11752326_a_at) / Fold change /veh ANKRD19P (11752326_a_at) / RFU OR2T12 /// OR2T33 /// OR2T8 (11738714_s_at) / Fold change /veh OR2T12 /// OR2T33 /// OR2T8 (11738714_s_at) / RFU VCAN (11748164_a_at) / Fold change /veh VCAN (11748164_a_at) / RFU JSRP1 (11732532_at) / Fold change /veh JSRP1 (11732532_at) / RFU KRTAP10-11 (11738290_x_at) / Fold change /veh KRTAP10-11 (11738290_x_at) / RFU MYO3A (11730013_a_at) / Fold change /veh MYO3A (11730013_a_at) / RFU EBF3 (11725865_a_at) / Fold change /veh EBF3 (11725865_a_at) / RFU CAMK2N1 (11719241_x_at) / Fold change /veh CAMK2N1 (11719241_x_at) / RFU C5orf56 (11738088_a_at) / Fold change /veh C5orf56 (11738088_a_at) / RFU OLFML3 (11715873_a_at) / Fold change /veh OLFML3 (11715873_a_at) / RFU LOC100653217 /// NTM (11731650_a_at) / Fold change /veh LOC100653217 /// NTM (11731650_a_at) / RFU MAPK11 (11762145_a_at) / Fold change /veh MAPK11 (11762145_a_at) / RFU FIZ1 (11724087_x_at) / Fold change /veh FIZ1 (11724087_x_at) / RFU OASL (11726364_x_at) / Fold change /veh OASL (11726364_x_at) / RFU SOX15 (11748057_x_at) / Fold change /veh SOX15 (11748057_x_at) / RFU CD79A (11719716_a_at) / Fold change /veh CD79A (11719716_a_at) / RFU HIST1H1D (11736915_at) / Fold change /veh HIST1H1D (11736915_at) / RFU CASKIN2 (11723855_a_at) / Fold change /veh CASKIN2 (11723855_a_at) / RFU LOC730098 (11760151_x_at) / Fold change /veh LOC730098 (11760151_x_at) / RFU OR4N2 (11742367_at) / Fold change /veh OR4N2 (11742367_at) / RFU PRRT2 (11749266_a_at) / Fold change /veh PRRT2 (11749266_a_at) / RFU SNX32 (11753110_a_at) / Fold change /veh SNX32 (11753110_a_at) / RFU CDHR5 (11726645_a_at) / Fold change /veh CDHR5 (11726645_a_at) / RFU RCAN1 (11760418_a_at) / Fold change /veh RCAN1 (11760418_a_at) / RFU FAM167A (11723789_a_at) / Fold change /veh FAM167A (11723789_a_at) / RFU FAM26E (11764081_at) / Fold change /veh FAM26E (11764081_at) / RFU ISYNA1 (11749810_s_at) / Fold change /veh ISYNA1 (11749810_s_at) / RFU ACY1 (11761880_at) / Fold change /veh ACY1 (11761880_at) / RFU 11764098_at / Fold change /veh 11764098_at / RFU SAMD14 (11745864_x_at) / Fold change /veh SAMD14 (11745864_x_at) / RFU NPB (11741838_a_at) / Fold change /veh NPB (11741838_a_at) / RFU TMPRSS6 (11731388_a_at) / Fold change /veh TMPRSS6 (11731388_a_at) / RFU KRTAP10-2 (11738614_at) / Fold change /veh KRTAP10-2 (11738614_at) / RFU ARHGAP8 /// PRR5-ARHGAP8 (11727945_x_at) / Fold change /veh ARHGAP8 /// PRR5-ARHGAP8 (11727945_x_at) / RFU KRTAP5-7 /// NADSYN1 (11734609_at) / Fold change /veh KRTAP5-7 /// NADSYN1 (11734609_at) / RFU RASL12 (11751679_a_at) / Fold change /veh RASL12 (11751679_a_at) / RFU CDKN2B (11736163_a_at) / Fold change /veh CDKN2B (11736163_a_at) / RFU PRF1 (11729649_at) / Fold change /veh PRF1 (11729649_at) / RFU, ZNF638 /// ZNF638-IT1 / Fold change vs veh, ZNF638 /// ZNF638-IT1 / RFU, PANK3 / Fold change vs veh, PANK3 / RFU, SH3YL1 / Fold change vs veh, SH3YL1 / RFU, ZEB2 / Fold change vs veh, ZEB2 / RFU, NRIP1 / Fold change vs veh, NRIP1 / RFU, PTTG1IP / Fold change vs veh, PTTG1IP / RFU, CAPN2 / Fold change vs veh, CAPN2 / RFU, MED14 / Fold change vs veh, MED14 / RFU, SNORA58 / Fold change vs veh, SNORA58 / RFU, C1orf63 / Fold change vs veh, C1orf63 / RFU, LRRFIP1 / Fold change vs veh, LRRFIP1 / RFU, NDUFAF7 / Fold change vs veh, NDUFAF7 / RFU, SLC12A2 / Fold change vs veh, SLC12A2 / RFU, IBTK / Fold change vs veh, IBTK / RFU, ESF1 / Fold change vs veh, ESF1 / Fold change vs veh, TMEM50B / RFU, TAOK1 / Fold change vs veh, TAOK1 / RFU, ACBD3 / Fold change vs veh, ACBD3 / RFU, TMA16 / Fold change vs veh, TMA16 / RFU, RWDD3 / Fold change vs veh, RWDD3 / RFU, BCAT1 / Fold change vs veh, BCAT1 / RFU, EDEM3 / Fold change vs veh, EDEM3 / RFU, TMEM33 / Fold change vs veh, TMEM33 / RFU, WDR75 / Fold change vs veh, WDR75 / RFU, AHCTF1 / Fold change vs veh, AHCTF1 / RFU, TFRC / Fold change vs veh, TFRC / RFU, ZDHHC17 / Fold change vs veh, ZDHHC17 / RFU, NOM1 / Fold change vs veh, NOM1 / RFU, ARL8B / Fold change vs veh, ARL8B / RFU, ZBTB11 / Fold change vs veh, ZBTB11 / RFU, TAMM41 / Fold change vs veh, TAMM41 / RFU, KIAA1704 /// LOC100996395 / Fold change vs veh, KIAA1704 /// LOC100996395 / RFU, ING1 / Fold change vs veh, ING1 / RFU, TRMT61B / Fold change vs veh, TRMT61B / RFU, FUBP3 / Fold change vs veh, FUBP3 / RFU, TP53 / Fold change vs veh, TP53 / RFU, TNKS2 / Fold change vs veh, TNKS2 / RFU, ZFP14 / Fold change vs veh, ZFP14 / RFU, ACTR2 / Fold change vs veh, ACTR2 / RFU, PPP3R1 / Fold change vs veh, PPP3R1 / RFU, PIK3R1 / Fold change vs veh, PIK3R1 / RFU, HNRNPA1 / Fold change vs veh, HNRNPA1 / RFU, RNF170 / Fold change vs veh, RNF170 / RFU, ZNF28 / Fold change vs veh, ZNF28 / RFU, RNGTT / Fold change vs veh, RNGTT / RFU, OGT / Fold change vs veh, OGT / RFU, BRD1 / Fold change vs veh, BRD1 / RFU, MARS / Fold change vs veh, MARS / RFU, ZNF655 / Fold change vs veh, ZNF655 / RFU, FAHD1 / Fold change vs veh, FAHD1 / RFU, BDP1 / Fold change vs veh, BDP1 / RFU, LRRCC1 / Fold change vs veh, LRRCC1 / RFU, ARID1A / Fold change vs veh, ARID1A / RFU, ZNF146 / Fold change vs veh, ZNF146 / RFU, ZNF330 / Fold change vs veh, ZNF330 / RFU, GPN3 / Fold change vs veh, GPN3 / RFU, C9orf123 / Fold change vs veh, C9orf123 / RFU, N4BP2L2 / Fold change vs veh, N4BP2L2 / RFU, ARFIP1 / Fold change vs veh, ARFIP1 / RFU, FAM179B / Fold change vs veh, FAM179B / RFU, BCL10 / Fold change vs veh, BCL10 / RFU, UHRF1BP1L / Fold change vs veh, UHRF1BP1L / RFU, BET1 / Fold change vs veh, BET1 / RFU, CNOT2 / Fold change vs veh, CNOT2 / RFU, ZNF268 / Fold change vs veh, ZNF268 / Fold change vs veh, ZNF507 / RFU, DGCR2 / Fold change vs veh, DGCR2 / RFU, WDSUB1 / Fold change vs veh, WDSUB1 / Fold change vs veh, HSP90B1 /// MIR3652 / RFU, ADSS / Fold change vs veh, ADSS / RFU, GK / Fold change vs veh, GK / RFU, ZNF148 / Fold change vs veh, ZNF148 / RFU, TAF9 / Fold change vs veh, TAF9 / RFU, SLC1A5 / Fold change vs veh, SLC1A5 / RFU, SLMO2 / Fold change vs veh, SLMO2 / RFU, ABCC4 / Fold change vs veh, ABCC4 / RFU, LOC101060439 /// RAP1B / Fold change vs veh, LOC101060439 /// RAP1B / RFU, RFX7 / Fold change vs veh, RFX7 / RFU, GTPBP10 / Fold change vs veh, GTPBP10 / RFU, CNEP1R1 / Fold change vs veh, CNEP1R1 / RFU, BIVM-ERCC5 /// ERCC5 / Fold change vs veh, BIVM-ERCC5 /// ERCC5 / RFU, ILF3 / Fold change vs veh, ILF3 / RFU 11762660_at / Fold change /veh 11762660_at / RFU VCAN (11757783_s_at) / Fold change /veh VCAN (11757783_s_at) / RFU DDX43 (11728927_at) / Fold change /veh DDX43 (11728927_at) / RFU KRT8 (11758188_x_at) / Fold change /veh KRT8 (11758188_x_at) / RFU NKD1 (11759106_at) / Fold change /veh NKD1 (11759106_at) / RFU SRD5A1 (11742802_a_at) / Fold change /veh SRD5A1 (11742802_a_at) / RFU TPSAB1 /// TPSB2 (11721975_s_at) / Fold change /veh TPSAB1 /// TPSB2 (11721975_s_at) / RFU GSTM3 (11746129_a_at) / Fold change /veh GSTM3 (11746129_a_at) / RFU IL23R (11737362_x_at) / Fold change /veh IL23R (11737362_x_at) / RFU TMEM51 (11727254_a_at) / Fold change /veh TMEM51 (11727254_a_at) / RFU PIWIL2 (11732686_x_at) / Fold change /veh PIWIL2 (11732686_x_at) / RFU ORM1 (11744905_x_at) / Fold change /veh ORM1 (11744905_x_at) / RFU CCDC152 (11743942_at) / Fold change /veh CCDC152 (11743942_at) / RFU ECM1 (11717891_a_at) / Fold change /veh ECM1 (11717891_a_at) / RFU IL23R (11748794_a_at) / Fold change /veh IL23R (11748794_a_at) / RFU TNFAIP8L3 (11732012_x_at) / Fold change /veh TNFAIP8L3 (11732012_x_at) / RFU MBOAT4 (11741988_at) / Fold change /veh MBOAT4 (11741988_at) / RFU 11764193_at / Fold change /veh 11764193_at / RFU TMEM53 (11763286_at) / Fold change /veh TMEM53 (11763286_at) / RFU MAGEB2 (11727129_at) / Fold change /veh MAGEB2 (11727129_at) / RFU TMEM200A (11744735_a_at) / Fold change /veh TMEM200A (11744735_a_at) / RFU CCDC152 (11751479_a_at) / Fold change /veh CCDC152 (11751479_a_at) / RFU FAM211A (11726209_a_at) / Fold change /veh FAM211A (11726209_a_at) / RFU RGS16 (11746705_a_at) / Fold change /veh RGS16 (11746705_a_at) / RFU VCAN (11755009_s_at) / Fold change /veh VCAN (11755009_s_at) / RFU RHOB (11743442_s_at) / Fold change /veh RHOB (11743442_s_at) / RFU RGS16 (11720943_a_at) / Fold change /veh RGS16 (11720943_a_at) / RFU RGS16 (11720944_at) / Fold change /veh RGS16 (11720944_at) / RFU, VPS4B / Fold change vs veh, VPS4B / RFU, CREB1 / Fold change vs veh, CREB1 / RFU, DNAJC13 / Fold change vs veh, DNAJC13 / RFU, GNAQ / Fold change vs veh, GNAQ / RFU, CDK5R1 / Fold change vs veh, CDK5R1 / RFU, ZRANB3 / Fold change vs veh, ZRANB3 / RFU, CUL4A / Fold change vs veh, CUL4A / RFU, CCNY / Fold change vs veh, CCNY / RFU, UFL1 / Fold change vs veh, UFL1 / RFU, COG3 / Fold change vs veh, COG3 / RFU, DIAPH2 / Fold change vs veh, DIAPH2 / RFU, SKA2 / Fold change vs veh, SKA2 / RFU, AFF3 / Fold change vs veh, AFF3 / RFU, LMF1 / Fold change vs veh, LMF1 / RFU, IPO11 / Fold change vs veh, IPO11 / RFU, DFFB / Fold change vs veh, DFFB / RFU, FOXP1 / Fold change vs veh, FOXP1 / RFU, CARD8 / Fold change vs veh, CARD8 / RFU, STRN3 / Fold change vs veh, STRN3 / RFU, ADK / Fold change vs veh, ADK / RFU, RASSF2 / Fold change vs veh, RASSF2 / RFU, WIPF1 / Fold change vs veh, WIPF1 / RFU, LARP1B / Fold change vs veh, LARP1B / RFU, RASA1 / Fold change vs veh, RASA1 / RFU, RB1 / Fold change vs veh, RB1 / RFU, PPFIA1 / Fold change vs veh, PPFIA1 / RFU, MAT2A / Fold change vs veh, MAT2A / RFU, CCT5 / Fold change vs veh, CCT5 / RFU, WDR92 / Fold change vs veh, WDR92 / RFU, CUX1 / Fold change vs veh, CUX1 / RFU, TTC7A / Fold change vs veh, TTC7A / RFU, TMEM135 / Fold change vs veh, TMEM135 / RFU, DEPTOR / Fold change vs veh, DEPTOR / RFU, CPM / Fold change vs veh, CPM / RFU, DNAJB6 / Fold change vs veh, DNAJB6 / RFU, CACNA2D3 / Fold change vs veh, CACNA2D3 / RFU, DTX4 / Fold change vs veh, DTX4 / RFU, TFCP2 / Fold change vs veh, TFCP2 / RFU, GMCL1 /// GMCL1P1 / Fold change vs veh, GMCL1 /// GMCL1P1 / RFU, AEBP2 / Fold change vs veh, AEBP2 / RFU, SNHG1 /// SNORD22 /// SNORD25 /// SNORD26 /// SNORD27 /// SNORD28 /// SNORD29 /// SNORD31 / Fold change vs veh, SNHG1 /// SNORD22 /// SNORD25 /// SNORD26 /// SNORD27 /// SNORD28 /// SNORD29 /// SNORD31 / Fold change (Aza/veh), C12orf56 (ProbeSet 11735607_a_at) / Fold change (ACY-1035/veh), C12orf56 (ProbeSet 11735607_a_at) / Fold change (Aza/veh), FGFR1OP (ProbeSet 11751329_s_at) / Fold change (ACY-1035/veh), FGFR1OP (ProbeSet 11751329_s_at) / Fold change (Aza/veh), VPS36 (ProbeSet 11739960_a_at) / Fold change (ACY-1035/veh), VPS36 (ProbeSet 11739960_a_at) / RFU SYPL1 (11715823_x_at) / Fold change /veh SYPL1 (11715823_x_at) / RFU IGFBP7 (11715501_s_at) / Fold change /veh IGFBP7 (11715501_s_at) / RFU REEP3 (11722064_at) / Fold change /veh REEP3 (11722064_at) / RFU IGLL1 (11728026_x_at) / Fold change /veh IGLL1 (11728026_x_at): dose or concentration left out as unconfirmed
Details: MV-4-11 cells, 48 hours

Nc1ncn([C@@H]2O[C@H](CO)[C@@H](O)[C@H]2O)c(=O)n1 [azacitidine]
Fold change /veh C10orf10 (11716521_a_at): 1.13

Source: PMC5218480 (PLoS ONE, 2017)
